Drawing on patent US20120270237A9, “METHODS FOR THE IDENTIFICATION OF KINASE INTERACTING MOLECULES AND FOR THE PURIFICATION OF KINASE PROTEINS” (Cellzone AG, priority 2009, published 2012), this text covers inhibition and Competition % for one compound.

Assay in all cases: Kinobeads competition binding, HeLa Placenta lysate mix
Holding throughout (parameters): endogenous in cells
What all share (details): 10 μM free compound

One experiment concerns the target MPSK1 (Homo sapiens, UniProt O75716). As for the experimental part: (§1) To one aliquot of cell lysate 10 μM of the free compound (FIG. 3, CZC31326) was added and allowed to bind to proteins in the lysate. Then the affinity matrix with the immobilized compound was added to capture proteins that were not interacting with the previously added free compound. Beads were separated from the lysate and bead bound proteins were eluted in SDS sample buffer and subsequently separated by SDS-Polyacrylamide gel electrophoresis (FIG. 10). Suitable gel bands were cut out and subjected to in-gel proteolytic digestion with trypsin. The second lysate aliquot was processed identically, however no free compound was added (DMSO solvent control). Peptides originating from samples 1 and 2 were labeled with iTRAQ reagents (iTRAQ 114 and iTRAQ 117) and the combined samples were analyzed with a nano-flow liquid chromatography system coupled online to a tandem mass spectrometer (LC-MS/MS) experiment followed by iTRAQ reporter ion quantification in the MS/MS spectra as described in Example 2.

The next experiment concerns the target Erk1 (Homo sapiens, UniProt P27361). As for the experimental part: as §1
The target in a further experiment is JNK2 (Homo sapiens, UniProt P45984). Here is the method: as §1
JNK2, sequence (P45984 whole entry): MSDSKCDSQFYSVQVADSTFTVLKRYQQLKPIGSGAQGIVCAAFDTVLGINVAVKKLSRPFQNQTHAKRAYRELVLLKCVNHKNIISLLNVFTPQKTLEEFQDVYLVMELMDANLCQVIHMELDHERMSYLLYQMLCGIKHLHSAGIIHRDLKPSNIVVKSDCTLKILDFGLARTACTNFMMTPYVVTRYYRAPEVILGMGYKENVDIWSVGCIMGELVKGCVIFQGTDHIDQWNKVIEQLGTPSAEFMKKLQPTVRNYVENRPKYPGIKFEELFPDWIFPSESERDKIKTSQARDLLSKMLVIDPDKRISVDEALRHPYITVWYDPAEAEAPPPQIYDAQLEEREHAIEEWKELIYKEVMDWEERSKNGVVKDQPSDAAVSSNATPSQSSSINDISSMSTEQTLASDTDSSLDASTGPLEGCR
A further experiment addresses T1, PIP5K2C (Homo sapiens, UniProt Q8TBX8).
T1 sequence (Q8TBX8 1-421): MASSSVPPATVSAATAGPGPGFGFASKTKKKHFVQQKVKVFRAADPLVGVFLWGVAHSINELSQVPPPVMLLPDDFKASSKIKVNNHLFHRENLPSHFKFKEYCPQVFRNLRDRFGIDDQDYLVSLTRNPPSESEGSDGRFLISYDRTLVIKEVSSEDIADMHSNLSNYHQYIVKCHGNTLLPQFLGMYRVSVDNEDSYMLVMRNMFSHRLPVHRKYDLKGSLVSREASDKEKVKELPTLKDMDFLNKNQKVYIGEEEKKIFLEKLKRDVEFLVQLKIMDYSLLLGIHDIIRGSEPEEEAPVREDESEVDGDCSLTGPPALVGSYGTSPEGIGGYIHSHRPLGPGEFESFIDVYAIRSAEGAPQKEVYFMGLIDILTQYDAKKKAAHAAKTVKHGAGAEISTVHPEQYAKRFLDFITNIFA
Here is the method: as §1

The next experiment deals with T2, PIP5K2A (Homo sapiens, UniProt P48426).
T2 sequence (P48426 1-406): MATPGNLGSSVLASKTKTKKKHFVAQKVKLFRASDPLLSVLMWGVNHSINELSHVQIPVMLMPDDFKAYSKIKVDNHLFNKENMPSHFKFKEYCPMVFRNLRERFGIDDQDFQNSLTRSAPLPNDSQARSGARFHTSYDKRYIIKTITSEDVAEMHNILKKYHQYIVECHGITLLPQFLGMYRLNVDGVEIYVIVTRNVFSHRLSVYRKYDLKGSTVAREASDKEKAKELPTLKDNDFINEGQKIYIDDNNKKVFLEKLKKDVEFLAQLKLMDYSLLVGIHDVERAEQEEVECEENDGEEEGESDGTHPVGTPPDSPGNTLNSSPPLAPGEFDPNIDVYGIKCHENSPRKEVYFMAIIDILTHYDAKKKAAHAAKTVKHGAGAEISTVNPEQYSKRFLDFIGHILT
As for the experimental part:
as §1

For the next experiment, the target named is PKN1 (Homo sapiens, UniProt Q16512). As for the experimental part:
as §1

Another experiment concerns the target T3, NEK3 (Homo sapiens, UniProt P51956).
T3 sequence (P51956 1-506): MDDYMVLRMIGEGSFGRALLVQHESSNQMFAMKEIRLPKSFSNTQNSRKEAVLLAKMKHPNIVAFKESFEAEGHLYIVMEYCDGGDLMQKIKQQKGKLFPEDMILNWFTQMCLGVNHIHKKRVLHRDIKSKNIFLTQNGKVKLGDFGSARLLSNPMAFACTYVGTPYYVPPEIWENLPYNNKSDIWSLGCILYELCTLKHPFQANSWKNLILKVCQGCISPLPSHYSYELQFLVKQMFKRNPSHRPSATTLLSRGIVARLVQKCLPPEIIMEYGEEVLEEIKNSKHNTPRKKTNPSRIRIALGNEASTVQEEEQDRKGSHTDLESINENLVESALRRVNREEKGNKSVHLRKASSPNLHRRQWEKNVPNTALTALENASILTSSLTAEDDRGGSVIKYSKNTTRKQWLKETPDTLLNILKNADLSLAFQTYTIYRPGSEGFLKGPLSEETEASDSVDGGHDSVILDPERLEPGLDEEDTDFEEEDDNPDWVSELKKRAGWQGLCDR
As for the experimental part: as §1

The next experiment has as its target AAK1 (Homo sapiens, UniProt Q2M2I8). Here is the method: as §1

As a reminder, the inhibition is the change of the read-out against control, counted positive when it falls. Lower therefore signals a response near the control.

Erk1, sequence (P27361 whole entry): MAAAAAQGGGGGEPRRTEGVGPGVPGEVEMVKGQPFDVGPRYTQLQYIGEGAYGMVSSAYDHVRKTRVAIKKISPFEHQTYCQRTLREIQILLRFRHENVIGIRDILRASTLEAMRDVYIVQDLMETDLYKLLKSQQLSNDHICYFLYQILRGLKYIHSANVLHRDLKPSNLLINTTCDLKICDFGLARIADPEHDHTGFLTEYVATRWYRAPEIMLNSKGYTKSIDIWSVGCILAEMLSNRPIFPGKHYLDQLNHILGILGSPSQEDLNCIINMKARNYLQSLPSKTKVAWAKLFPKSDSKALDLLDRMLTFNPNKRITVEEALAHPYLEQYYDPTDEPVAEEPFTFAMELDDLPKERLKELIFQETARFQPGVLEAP
PKN1, sequence (Q16512 whole entry): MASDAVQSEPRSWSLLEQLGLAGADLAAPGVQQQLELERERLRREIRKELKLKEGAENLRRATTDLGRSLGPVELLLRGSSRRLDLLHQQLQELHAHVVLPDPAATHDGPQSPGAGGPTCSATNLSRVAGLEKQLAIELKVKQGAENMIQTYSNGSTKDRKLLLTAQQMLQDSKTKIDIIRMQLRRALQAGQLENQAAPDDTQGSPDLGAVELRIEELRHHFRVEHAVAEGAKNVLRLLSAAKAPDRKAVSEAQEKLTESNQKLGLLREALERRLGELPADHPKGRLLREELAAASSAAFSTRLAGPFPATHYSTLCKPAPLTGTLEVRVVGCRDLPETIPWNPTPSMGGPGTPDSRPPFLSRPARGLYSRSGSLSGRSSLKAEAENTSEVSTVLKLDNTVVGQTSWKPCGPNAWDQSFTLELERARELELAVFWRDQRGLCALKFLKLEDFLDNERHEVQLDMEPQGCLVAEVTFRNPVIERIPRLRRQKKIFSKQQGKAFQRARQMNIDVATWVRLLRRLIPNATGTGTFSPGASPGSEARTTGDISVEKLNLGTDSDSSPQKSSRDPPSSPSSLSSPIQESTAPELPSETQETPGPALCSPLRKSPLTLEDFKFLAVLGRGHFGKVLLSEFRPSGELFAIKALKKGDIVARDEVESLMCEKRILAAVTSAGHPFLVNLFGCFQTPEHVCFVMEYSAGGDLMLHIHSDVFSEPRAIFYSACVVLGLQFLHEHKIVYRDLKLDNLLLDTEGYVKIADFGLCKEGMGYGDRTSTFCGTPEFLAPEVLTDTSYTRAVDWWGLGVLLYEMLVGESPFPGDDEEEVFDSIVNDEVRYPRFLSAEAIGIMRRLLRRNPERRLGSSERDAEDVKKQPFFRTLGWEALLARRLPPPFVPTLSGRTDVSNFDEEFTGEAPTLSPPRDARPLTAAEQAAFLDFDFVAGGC
AAK1, sequence (Q2M2I8 whole entry): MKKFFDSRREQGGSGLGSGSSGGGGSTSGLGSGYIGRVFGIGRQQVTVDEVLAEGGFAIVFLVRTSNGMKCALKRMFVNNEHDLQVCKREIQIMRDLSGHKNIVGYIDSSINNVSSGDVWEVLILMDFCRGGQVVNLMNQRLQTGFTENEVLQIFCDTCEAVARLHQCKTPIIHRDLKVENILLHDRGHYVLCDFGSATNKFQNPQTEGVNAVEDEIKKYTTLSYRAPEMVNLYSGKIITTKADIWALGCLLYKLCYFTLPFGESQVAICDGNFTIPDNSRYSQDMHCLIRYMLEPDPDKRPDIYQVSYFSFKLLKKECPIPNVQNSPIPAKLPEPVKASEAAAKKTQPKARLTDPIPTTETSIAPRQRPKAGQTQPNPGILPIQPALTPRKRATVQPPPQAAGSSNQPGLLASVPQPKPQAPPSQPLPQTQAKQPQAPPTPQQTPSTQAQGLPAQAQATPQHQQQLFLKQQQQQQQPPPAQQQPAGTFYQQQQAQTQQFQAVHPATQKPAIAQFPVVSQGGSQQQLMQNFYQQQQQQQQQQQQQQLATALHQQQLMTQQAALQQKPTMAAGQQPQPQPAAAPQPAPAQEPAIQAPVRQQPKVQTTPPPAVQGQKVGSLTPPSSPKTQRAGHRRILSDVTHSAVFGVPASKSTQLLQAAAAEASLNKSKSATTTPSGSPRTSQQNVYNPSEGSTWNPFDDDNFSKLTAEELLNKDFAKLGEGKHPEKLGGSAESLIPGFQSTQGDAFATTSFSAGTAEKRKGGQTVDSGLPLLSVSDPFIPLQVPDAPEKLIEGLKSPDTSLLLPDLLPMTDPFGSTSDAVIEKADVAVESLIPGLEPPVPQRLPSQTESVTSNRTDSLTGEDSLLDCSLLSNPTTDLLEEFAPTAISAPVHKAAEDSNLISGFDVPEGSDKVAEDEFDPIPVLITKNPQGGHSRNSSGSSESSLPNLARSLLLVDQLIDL
MPSK1, sequence (O75716 whole entry): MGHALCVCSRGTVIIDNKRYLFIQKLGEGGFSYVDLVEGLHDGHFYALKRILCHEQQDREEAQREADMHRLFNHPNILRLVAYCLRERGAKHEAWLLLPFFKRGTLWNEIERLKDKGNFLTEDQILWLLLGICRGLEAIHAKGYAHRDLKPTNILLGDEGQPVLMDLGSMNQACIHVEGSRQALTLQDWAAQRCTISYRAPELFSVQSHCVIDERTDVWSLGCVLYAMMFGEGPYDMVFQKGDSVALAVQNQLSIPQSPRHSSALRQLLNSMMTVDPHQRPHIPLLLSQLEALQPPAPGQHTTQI

For the compound `CS(=O)(=O)Nc1ccccc1Nc1nc(Nc2cccc(OCCN)c2)ncc1Cl` [CZC31326, N-(2-(2-(3-(2-aminoethoxy)phenylamino)-5-chloropyrimidin-4-ylamino)phenyl)methanesulfonamide], the inhibition at 10 µM worked out at 91.5% at MPSK1; 77.8% on Erk1; 95.4% on PIP5K2C; 95% at PIP5K2A; 93.7% at PKN1; 94.8% on NEK3. On AAK1, this compound yielded an inhibition at 10 µM of 94.5%. In addition, the Competition % on JNK2 worked out at 83.1%.
